{
  "source": "paper PMC10199020",
  "about": "(Nature Communications, 2023)",
  "key": {"NL-IL12Rβ1 with IL23R": {"molecular_target": "T1, NL-IL12Rβ1 with IL23R (Homo sapiens, UniProt Q5VWK5)", "T1 construct": "untagged full-length IL23R could be measured in the membranes of living cells; expressed in transfected cells; host or cells: HEK293T, transient transfection", "T1 sequence (Q5VWK5 24-629, other chains not shown)": "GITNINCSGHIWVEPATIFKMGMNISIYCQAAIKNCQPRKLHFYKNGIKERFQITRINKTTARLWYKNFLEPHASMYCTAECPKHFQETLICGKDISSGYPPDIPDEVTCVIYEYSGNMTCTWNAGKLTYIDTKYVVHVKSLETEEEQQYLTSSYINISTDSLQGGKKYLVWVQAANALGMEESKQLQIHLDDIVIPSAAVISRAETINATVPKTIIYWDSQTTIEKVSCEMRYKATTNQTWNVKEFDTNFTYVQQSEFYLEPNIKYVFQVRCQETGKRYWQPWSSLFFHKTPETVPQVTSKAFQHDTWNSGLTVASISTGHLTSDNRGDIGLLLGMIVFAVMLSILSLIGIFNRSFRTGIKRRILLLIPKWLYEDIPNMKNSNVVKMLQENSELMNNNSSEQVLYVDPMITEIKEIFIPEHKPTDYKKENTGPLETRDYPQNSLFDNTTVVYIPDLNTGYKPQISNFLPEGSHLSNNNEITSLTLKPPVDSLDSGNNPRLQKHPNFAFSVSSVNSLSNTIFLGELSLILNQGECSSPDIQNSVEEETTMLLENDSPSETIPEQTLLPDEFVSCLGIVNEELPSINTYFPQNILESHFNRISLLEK", "assay": "P630-TMR NanoBRET binding assay, NL-IL12Rβ1 with IL23R", "settings": "for BRET ratio, Specific (Mean) / BRET ratio, Non-specific (Mean): Fig. 2e; for BRET ratio, Non-specific (Mean): with 10 μM P630; for % maximum BRET ratio (Mean): Figure 2 sheet Panel g; for % maximum BRET ratio (Mean) / BRET ratio with non-specific binding subtracted (Mean): IL23R + NL-IL12RB1; for BRET ratio with non-specific binding subtracted (Mean): Figure 2 sheet Panels f, h", "text": "A standard curve was used to predict the expression level of NanoLuc labelled receptor in each experiment (Supplementary Fig. 1).\n(§1) Fig. 2 Creation and characterisation of a fluorescent cyclic peptide probe for IL23R. […] Data are normally mean ± SEM from five independent experiments. Details on absolute number of data points included for each concentration are provided in the associated Source Data file. In each individual saturation experiment triplicate determinations were normally made for total binding and duplicate measurements were made for non-specific binding.\n(§2) Media was removed from white 96-well microplates containing transfected cells and replaced with fluoroprobe in the presence or absence of antagonist in 50 μL Hanks Balanced Salt Solution (HBSS) with 1 mg/mL BSA (Merck). After a 1-hour incubation at 37 °C without CO2, 5 μL of HBSS containing 77 μM furimizine was added to each well (final concentration 7 μM), the plate incubated for 5-minutes and the BRET signal measured using a PheraStar FS plate reader (BMG Labtech; data acquisition software version 5.41; MARS analysis software version 3.32) with a 450 ± 30 nm and >550 nm long pass filters.\nLigand binding data were fitted with the equation:2 BRETratio=Bmax[A]/([A]+KD)+(BA+C). Where ‘Bmax’ is the maximum specific binding BRET signal, ‘[A]’ is fluorescent probe concentration, ‘B’ is the non-specific binding component’s slope and ‘C’ is the Y intercept.\n(§3) Specific binding data was generated by subtracting the BRET values gained in the presence of an excess of unlabelled probe from the BRET ratios gained in the absence of unlabelled probe. Specific binding data were fit using the equation:3 Y=Bmax[B]/(B+KD) where ‘Bmax’ is the maximum specific binding signal of the curve and ‘[B]’ is the concentration of fluorescent probe."}, "NL-IL12Rβ1": {"molecular_target": "T2, NL-IL12Rβ1 (Homo sapiens, UniProt P42701)", "T2 construct": "expressed in transfected cells; host or cells: HEK293T, transient transfection", "assay": "P630-TMR NanoBRET binding assay, NL-IL12Rβ1 alone", "settings": "for Specific binding BRET ratio (Mean): Fig. 2h, NL-IL12RB1", "text": "as §1\nFinally, we utilised a NanoBiT BRET system in which a complemented luciferase with fragments bound to both receptor subunits (Fig. 3) can be used as a BRET donor to measure interactions with binary receptor complexes.\nas §2, §3"}, "[1]": {"settings": "NL-IL12Rβ1 and IL23R, P630-TMR 37.037 nM"}, "[2]": {"settings": "NL-IL12Rβ1 and IL23R, P630-TMR 111.111 nM"}, "[3]": {"settings": "NL-IL12Rβ1 and IL23R, P630-TMR 1000 nM"}, "[4]": {"settings": "NL-IL12Rβ1 and IL23R, P630-TMR 3000 nM"}},
  "note": "Entries after “also recorded” stand apart in the source; their conditions may differ. Bridge positions count the residues as written; N and C are the ends. Square brackets hold non-standard residues; d marks the D form. Peptide text beside a SMILES is read from it. * marks the point of attachment. 5TAMRA = CN(C)c1ccc2c(c1)Oc1cc(N(C)C)ccc1C21OC(=O)c2cc(C(=O)*)ccc21; 2Nal = N[C@@H](Cc1ccc2ccccc2c1)C(=O)O; Pen = CC(C)(S)[C@H](N)C(=O)O; Aib = CC(C)(N)C(=O)O",
  "data": [
    {"smiles": "COc1ccc(C[C@H](NC(=O)[C@H]2NC(=O)[C@H](CCC(N)=O)NC(=O)[C@H](Cc3c[nH]c4ccccc34)NC(=O)[C@H]([C@@H](C)O)NC(=O)[C@H](CC(N)=O)NC(=O)[C@@H](NC(C)=O)C(C)(C)SSC2(C)C)C(=O)N[C@@H](Cc2ccc3ccccc3c2)C(=O)NC(C)(C)C(=O)N[C@@H](CCC(=O)O)C(=O)N[C@@H](CC(N)=O)C(=O)N[C@@H](CC(N)=O)C(=O)N[C@@H](CCCCNC(=O)c2ccc3c(c2)C(=O)OC32c3ccc(N(C)C)cc3Oc3cc(N(C)C)ccc32)C(N)=O)cc1", "note": "[P630-TMR] (Ac-[Pen]NTWQ[Pen]Y(Me)[2Nal][Aib]ENNK(5TAMRA)-NH2; disulfide 1-6)", "values": [
      {"measurement": "BRET ratio, Specific (Mean)", "setting": "NL-IL12Rβ1 with IL23R; [1]", "result": 0.2604},
      {"measurement": "BRET ratio, Specific (Mean)", "setting": "NL-IL12Rβ1 with IL23R; [2]", "result": 0.269},
      {"measurement": "BRET ratio, Specific (Mean)", "setting": "NL-IL12Rβ1 with IL23R; [3]", "result": 0.2823},
      {"measurement": "BRET ratio, Specific (Mean)", "setting": "NL-IL12Rβ1 with IL23R; [4]", "result": 0.2959},
      {"measurement": "BRET ratio, Non-specific (Mean)", "setting": "NL-IL12Rβ1 with IL23R; NL-IL12Rβ1 and IL23R, P630-TMR 0.457247 nM", "result": 0.245},
      {"measurement": "BRET ratio, Non-specific (Mean)", "setting": "NL-IL12Rβ1 with IL23R; NL-IL12Rβ1 and IL23R, P630-TMR 1.37174 nM", "result": 0.2494},
      {"measurement": "BRET ratio, Non-specific (Mean)", "setting": "NL-IL12Rβ1 with IL23R; NL-IL12Rβ1 and IL23R, P630-TMR 4.11523 nM", "result": 0.2477},
      {"measurement": "BRET ratio, Non-specific (Mean)", "setting": "NL-IL12Rβ1 with IL23R; NL-IL12Rβ1 and IL23R, P630-TMR 12.3457 nM", "result": 0.2499},
      {"measurement": "BRET ratio, Non-specific (Mean)", "setting": "NL-IL12Rβ1 with IL23R; [1]", "result": 0.2505},
      {"measurement": "BRET ratio, Non-specific (Mean)", "setting": "NL-IL12Rβ1 with IL23R; [2]", "result": 0.2497},
      {"measurement": "BRET ratio, Non-specific (Mean)", "setting": "NL-IL12Rβ1 with IL23R; [3]", "result": 0.2599},
      {"measurement": "BRET ratio, Non-specific (Mean)", "setting": "NL-IL12Rβ1 with IL23R; [4]", "result": 0.2729},
      {"measurement": "BRET ratio, Non-specific (Mean)", "setting": "NL-IL12Rβ1 with IL23R; NL-IL12Rβ1 and IL23R, P630-TMR […]", "result": 0.2519},
      {"measurement": "% maximum BRET ratio (Mean)", "setting": "NL-IL12Rβ1 with IL23R; P630-TMR 0.457247 nM", "result": 20.2943, "unit": "%"},
      {"measurement": "% maximum BRET ratio (Mean)", "setting": "NL-IL12Rβ1 with IL23R; P630-TMR 1.37174 nM", "result": 3.037, "unit": "%"},
      {"measurement": "% maximum BRET ratio (Mean)", "setting": "NL-IL12Rβ1 with IL23R; P630-TMR 4.11523 nM", "result": 30.2039, "unit": "%"},
      {"measurement": "% maximum BRET ratio (Mean)", "setting": "NL-IL12Rβ1 with IL23R; P630-TMR 12.3457 nM", "result": 28.4128, "unit": "%"},
      {"measurement": "% maximum BRET ratio (Mean)", "setting": "NL-IL12Rβ1 with IL23R; P630-TMR 37.037 nM", "result": 44.6085, "unit": "%"},
      {"measurement": "% maximum BRET ratio (Mean)", "setting": "NL-IL12Rβ1 with IL23R; P630-TMR 111.111 nM", "result": 87.2944, "unit": "%"},
      {"measurement": "% maximum BRET ratio (Mean)", "setting": "NL-IL12Rβ1 with IL23R; P630-TMR 1000 nM", "result": 109.773, "unit": "%"},
      {"measurement": "% maximum BRET ratio (Mean)", "setting": "NL-IL12Rβ1 with IL23R; P630-TMR 3000 nM", "result": 100.001, "unit": "%"},
      {"measurement": "BRET ratio with non-specific binding subtracted (Mean)", "setting": "NL-IL12Rβ1 with IL23R; P630-TMR 0.457247 nM", "result": 0.00447},
      {"measurement": "BRET ratio with non-specific binding subtracted (Mean)", "setting": "NL-IL12Rβ1 with IL23R; P630-TMR 1.37174 nM", "result": 0.001281},
      {"measurement": "BRET ratio with non-specific binding subtracted (Mean)", "setting": "NL-IL12Rβ1 with IL23R; P630-TMR 4.11523 nM", "result": 0.006719},
      {"measurement": "BRET ratio with non-specific binding subtracted (Mean)", "setting": "NL-IL12Rβ1 with IL23R; P630-TMR 12.3457 nM", "result": 0.00665},
      {"measurement": "BRET ratio with non-specific binding subtracted (Mean)", "setting": "NL-IL12Rβ1 with IL23R; P630-TMR 37.037 nM", "result": 0.009959},
      {"measurement": "BRET ratio with non-specific binding subtracted (Mean)", "setting": "NL-IL12Rβ1 with IL23R; P630-TMR 111.111 nM", "result": 0.01927},
      {"measurement": "BRET ratio with non-specific binding subtracted (Mean)", "setting": "NL-IL12Rβ1 with IL23R; P630-TMR 1000 nM", "result": 0.02313},
      {"measurement": "BRET ratio with non-specific binding subtracted (Mean)", "setting": "NL-IL12Rβ1 with IL23R; P630-TMR 3000 nM", "result": 0.02294},
      {"measurement": "Kd", "setting": "NL-IL12Rβ1 with IL23R; NL-IL12Rβ1 and IL23R, mean ± SEM", "result": "55.2 ± 10.5", "unit": "nM"},
      {"measurement": "Bmax, fold lower than NL-IL23R with IL12Rβ1", "setting": "NL-IL12Rβ1 with IL23R; NL-IL12Rβ1 with IL23R", "result": 42.53, "unit": "fold"},
      {"measurement": "Specific binding BRET ratio (Mean)", "setting": "NL-IL12Rβ1; P630-TMR 1.37174 nM", "result": -0.001356},
      {"measurement": "Specific binding BRET ratio (Mean)", "setting": "NL-IL12Rβ1; P630-TMR 4.11523 nM", "result": 0.00137},
      {"measurement": "Specific binding BRET ratio (Mean)", "setting": "NL-IL12Rβ1; P630-TMR 12.3457 nM", "result": 0.0001891},
      {"measurement": "Specific binding BRET ratio (Mean)", "setting": "NL-IL12Rβ1; P630-TMR 37.037 nM", "result": 0.00136},
      {"measurement": "Specific binding BRET ratio (Mean)", "setting": "NL-IL12Rβ1; P630-TMR 111.111 nM", "result": 0.002083},
      {"measurement": "Specific binding BRET ratio (Mean)", "setting": "NL-IL12Rβ1; P630-TMR 1000 nM", "result": 0.003104},
      {"measurement": "Specific binding BRET ratio (Mean)", "setting": "NL-IL12Rβ1; P630-TMR 3000 nM", "result": 0.002137},
      {"measurement": "Binding to cells expressing NL-IL12Rβ1 in isolation", "setting": "NL-IL12Rβ1; absence of IL23R", "result": "no specific binding; also recorded: Did not bind"}
    ]}
  ]
}
